The source of these data is ChEMBL document CHEMBL1909046, “DrugMatrix in vitro pharmacology data”.

Molecules are shown by their SMILES.

In assay [1] the target is T1, 5-hydroxytryptamine receptor 1A (Rattus norvegicus, UniProt P19327). Further: in other assays of this panel Not Active means under 50% inhibition at 10 µM.
T1 sequence (P19327 whole entry): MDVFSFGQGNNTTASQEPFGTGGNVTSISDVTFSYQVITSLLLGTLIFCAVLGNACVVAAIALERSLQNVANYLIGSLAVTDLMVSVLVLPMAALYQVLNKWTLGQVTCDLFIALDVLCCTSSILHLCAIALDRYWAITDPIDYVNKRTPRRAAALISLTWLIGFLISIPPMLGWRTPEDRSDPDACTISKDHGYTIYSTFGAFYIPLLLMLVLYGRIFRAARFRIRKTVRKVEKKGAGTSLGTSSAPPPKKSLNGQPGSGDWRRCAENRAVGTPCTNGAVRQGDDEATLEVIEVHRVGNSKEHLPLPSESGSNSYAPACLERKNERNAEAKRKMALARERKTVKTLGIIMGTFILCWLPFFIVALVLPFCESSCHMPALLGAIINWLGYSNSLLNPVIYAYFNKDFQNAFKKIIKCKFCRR
In kind it is cell membranes, CHO-K1, Membrane. The following applies: for Ki: read-out: Ki.

Assay [2] deals with T2, Muscarinic acetylcholine receptor M2 (Homo sapiens, UniProt P08172).
T2 sequence (P08172 whole entry): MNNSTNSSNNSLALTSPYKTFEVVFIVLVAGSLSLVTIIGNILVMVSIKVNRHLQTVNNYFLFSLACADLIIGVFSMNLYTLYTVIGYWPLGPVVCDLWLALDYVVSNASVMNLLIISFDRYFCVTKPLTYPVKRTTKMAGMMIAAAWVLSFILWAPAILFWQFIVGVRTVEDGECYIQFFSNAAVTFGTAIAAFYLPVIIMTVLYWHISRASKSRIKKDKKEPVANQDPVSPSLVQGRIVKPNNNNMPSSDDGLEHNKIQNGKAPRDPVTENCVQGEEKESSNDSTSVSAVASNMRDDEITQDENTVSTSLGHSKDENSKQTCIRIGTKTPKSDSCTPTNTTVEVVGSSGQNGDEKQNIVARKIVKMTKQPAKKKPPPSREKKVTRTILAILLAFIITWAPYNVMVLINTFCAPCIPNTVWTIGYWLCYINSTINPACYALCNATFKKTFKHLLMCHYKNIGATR
In kind it is cell membranes, CHO-K1, Membrane. The following applies: cho-k1.

The target of assay [3] is T3, Nitric oxide synthase, inducible (Mus musculus, UniProt P29477).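 Further: inhibition of iNOS enzyme activity measured with L-arginine as substrate; in other assays of this panel Not Active means under 50% inhibition at 10 µM.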
T3 sequence (P29477 whole entry): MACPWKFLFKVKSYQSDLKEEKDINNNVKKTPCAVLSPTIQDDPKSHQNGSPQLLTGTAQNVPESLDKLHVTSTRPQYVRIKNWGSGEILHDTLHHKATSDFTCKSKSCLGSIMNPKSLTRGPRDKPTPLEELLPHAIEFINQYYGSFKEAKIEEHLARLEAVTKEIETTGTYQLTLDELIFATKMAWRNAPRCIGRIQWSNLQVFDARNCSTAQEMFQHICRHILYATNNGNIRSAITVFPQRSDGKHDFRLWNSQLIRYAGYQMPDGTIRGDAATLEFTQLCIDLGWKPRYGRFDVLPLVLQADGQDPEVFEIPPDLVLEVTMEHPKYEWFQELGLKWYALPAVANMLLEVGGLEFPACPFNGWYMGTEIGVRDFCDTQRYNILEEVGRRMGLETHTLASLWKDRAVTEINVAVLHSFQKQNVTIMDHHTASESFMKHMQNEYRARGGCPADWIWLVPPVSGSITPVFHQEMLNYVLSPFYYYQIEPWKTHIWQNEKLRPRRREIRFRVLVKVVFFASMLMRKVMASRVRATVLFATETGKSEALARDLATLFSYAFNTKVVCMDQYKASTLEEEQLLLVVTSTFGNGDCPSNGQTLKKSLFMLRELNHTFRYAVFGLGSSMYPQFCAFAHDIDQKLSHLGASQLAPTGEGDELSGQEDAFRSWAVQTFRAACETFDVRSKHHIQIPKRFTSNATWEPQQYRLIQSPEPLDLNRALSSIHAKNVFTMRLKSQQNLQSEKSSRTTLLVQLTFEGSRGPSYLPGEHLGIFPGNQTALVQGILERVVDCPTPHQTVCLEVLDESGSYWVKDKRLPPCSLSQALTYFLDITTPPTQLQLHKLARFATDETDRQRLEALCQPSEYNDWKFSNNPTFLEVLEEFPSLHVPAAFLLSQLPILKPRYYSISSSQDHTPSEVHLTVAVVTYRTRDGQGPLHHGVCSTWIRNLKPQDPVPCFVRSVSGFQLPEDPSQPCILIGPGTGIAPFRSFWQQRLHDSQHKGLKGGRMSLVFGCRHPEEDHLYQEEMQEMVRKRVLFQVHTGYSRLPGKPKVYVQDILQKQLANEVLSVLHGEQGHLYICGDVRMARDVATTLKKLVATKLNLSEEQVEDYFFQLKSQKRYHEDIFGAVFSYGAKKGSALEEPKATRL
On the set-up: species or system Escherichia coli.

For assay [4], the target named is Mitogen-activated protein kinase 1 (Homo sapiens, UniProt P28482). Description: DRUGMATRIX: Protein Serine/Threonine Kinase, ERK2 enzyme inhibition (substrate: Myelin Basic Protein). On the set-up: species or system Escherichia coli. To be noted: Not Active = under 50% inhibition at 10 µM.
Sequence of Mitogen-activated protein kinase 1 (P28482 whole entry): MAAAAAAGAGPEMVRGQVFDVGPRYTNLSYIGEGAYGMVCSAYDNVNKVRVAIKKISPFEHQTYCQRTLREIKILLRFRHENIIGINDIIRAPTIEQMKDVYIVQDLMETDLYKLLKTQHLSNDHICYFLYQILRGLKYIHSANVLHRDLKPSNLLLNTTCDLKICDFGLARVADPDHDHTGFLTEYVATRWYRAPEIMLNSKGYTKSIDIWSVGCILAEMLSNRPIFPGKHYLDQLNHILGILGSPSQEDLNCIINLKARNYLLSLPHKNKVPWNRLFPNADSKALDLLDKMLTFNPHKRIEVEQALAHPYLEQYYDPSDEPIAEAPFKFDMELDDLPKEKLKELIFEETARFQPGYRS
The target in assay [5] is T4, Neuropeptide Y receptor type 2 (Homo sapiens, UniProt P49146). Further: in other assays of this panel Not Active means under 50% inhibition at 10 µM.
T4 sequence (P49146 whole entry): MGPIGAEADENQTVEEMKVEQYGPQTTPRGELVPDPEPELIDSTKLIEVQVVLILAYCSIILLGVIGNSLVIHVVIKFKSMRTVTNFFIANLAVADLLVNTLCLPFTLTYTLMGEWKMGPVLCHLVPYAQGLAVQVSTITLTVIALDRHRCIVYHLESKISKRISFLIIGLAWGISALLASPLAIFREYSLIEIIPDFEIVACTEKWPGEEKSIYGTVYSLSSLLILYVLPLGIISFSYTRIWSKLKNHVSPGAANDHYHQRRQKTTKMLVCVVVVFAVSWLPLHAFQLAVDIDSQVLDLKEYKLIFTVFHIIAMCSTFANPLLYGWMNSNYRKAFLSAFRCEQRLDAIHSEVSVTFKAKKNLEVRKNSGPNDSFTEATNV
In kind it is cell membranes, Membrane. To be noted: kan-ts.

The target of assay [6] is Sigma non-opioid intracellular receptor 1 (Homo sapiens, UniProt Q99720). As to the kind of experiment: DRUGMATRIX: Sigma1 radioligand binding (ligand: [3H] Haloperidol). To be noted: jurkat; Not Active = under 50% inhibition at 10 µM. In kind it is cell membranes, Jurkat, Membrane.
Sequence of Sigma non-opioid intracellular receptor 1 (Q99720 whole entry): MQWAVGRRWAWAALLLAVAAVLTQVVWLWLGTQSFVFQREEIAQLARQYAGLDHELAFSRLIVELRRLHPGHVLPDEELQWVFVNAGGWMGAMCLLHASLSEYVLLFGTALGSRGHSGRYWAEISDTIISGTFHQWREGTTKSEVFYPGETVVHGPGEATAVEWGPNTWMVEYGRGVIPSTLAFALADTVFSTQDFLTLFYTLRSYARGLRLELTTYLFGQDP

As for `CC(C)CN(C[C@@H](O)[C@H](Cc1ccccc1)NC(=O)O[C@H]1CCOC1)S(=O)(=O)c1ccc(N)cc1`, the IC50 entry in assay [1] (cho-k1), in assay [2], in assay [3], in assay [4], in assay [5] and in assay [6] was “Not Active” in each case.
With `c1ccc(Nc2ccc(Nc3ccccc3)cc2)cc1`, the IC50 result in assay [1] (cho-k1), in assay [2], in assay [3], in assay [4], in assay [5] and in assay [6] was “Not Active” in each case.
For the compound `COc1cc2c3cc1Oc1cc(ccc1O)C[C@@H]1c4c(cc(OC)c(O)c4Oc4ccc(cc4)C[C@@H]3N(C)CC2)CC[N+]1(C)C.[Cl-]`, the IC50 result in assay [1] (cho-k1), in assay [2], in assay [3], in assay [4], in assay [5] and in assay [6] was “Not Active” in each case.
`NC(=O)N1c2ccccc2CCc2ccccc21`: the concentration for half-maximal inhibition (IC50) result in assay [1] (cho-k1), in assay [2], in assay [3], in assay [4], in assay [5] and in assay [6] was “Not Active” in each case.
Consider `O=C1CC[C@@H](N2C(=O)c3ccccc3C2=O)C(=O)N1`, for which the IC50 result in assay [1] (cho-k1), in assay [2], in assay [3], in assay [4], in assay [5] and in assay [6] was “Not Active” each time.
For the compound `Cc1onc(O)c1CC(N)C(=O)O` (racemic) [(R,S)-AMPA], the 50% inhibitory concentration (IC50) entry in assay [1] (cho-k1), in assay [2], in assay [3], in assay [4], in assay [5] and in assay [6] was “Not Active” each time.
With `Cc1ccc2cc3c(ccc4ccccc43)c3c2c1CC3` [3-METHYLCHOLANTHRENE], the IC50 entry in assay [1] (cho-k1), in assay [2], in assay [3], in assay [4], in assay [5] and in assay [6] was “Not Active” in each case.
For the compound `CC[C@@]1(O)C[C@H](O[C@H]2C[C@H](N(C)C)[C@H](O[C@H]3C[C@H](O)[C@H](O[C@H]4CCC(=O)[C@H](C)O4)[C@H](C)O3)[C@H](C)O2)c2c(cc3c(c2O)C(=O)c2c(O)cccc2C3=O)[C@H]1C(=O)OC` [ACLARUBICIN], the IC50 result in assay [1] (cho-k1), in assay [2], in assay [3], in assay [4], in assay [5] and in assay [6] was “Not Active” throughout.
Consider `Nc1nc2c(ncn2COCCO)c(=O)[nH]1` [ACYCLOVIR], for which the IC50 result in assay [1] (cho-k1), in assay [2], in assay [3], in assay [4], in assay [5] and in assay [6] was “Not Active” throughout.
In the case of `Cc1c(C)c2c(c(C)c1O)CC[C@@](C)(CCC[C@H](C)CCC[C@H](C)CCCC(C)C)O2` [ALPHA-TOCOPHEROL], the IC50 entry in assay [1] (cho-k1), in assay [2], in assay [3], in assay [4], in assay [5] and in assay [6] was “Not Active” in each case.
For `CN(C)c1nc(N(C)C)nc(N(C)C)n1` [ALTRETAMINE], the IC50 result in assay [1] (cho-k1), in assay [2], in assay [3], in assay [4], in assay [5] and in assay [6] was “Not Active” each time.
With `Nc1c(Br)cc(Br)cc1CN[C@H]1CC[C@H](O)CC1` [AMBROXOL], the IC50 entry in assay [1] (cho-k1), in assay [2], in assay [3], in assay [4], in assay [5] and in assay [6] was “Not Active” throughout.
Take `NCCCCCC(=O)O` [AMINOCAPROIC ACID]: the IC50 result in assay [1] (cho-k1), in assay [2], in assay [3], in assay [4], in assay [5] and in assay [6] was “Not Active” in each case.
As for `CCC1(c2ccc(N)cc2)CCC(=O)NC1=O` (configuration not stated) [AMINOGLUTETHIMIDE], the IC50 result in assay [1] (cho-k1), in assay [2], in assay [3], in assay [4], in assay [5] and in assay [6] was “Not Active” throughout.
Take `Cc1ccc(/N=C/N(C)/C=N/c2ccc(C)cc2C)c(C)c1` [AMITRAZ]: the half-inhibitory concentration (IC50) result in assay [1] (cho-k1), in assay [2], in assay [3], in assay [4], in assay [5] and in assay [6] was “Not Active” in each case.
As for `CCOC(=O)C1=C(COCCN)NC(C)=C(C(=O)OC)C1c1ccccc1Cl` (configuration not stated) [AMLODIPINE], the IC50 entry in assay [1] (cho-k1), in assay [2], in assay [3], in assay [4], in assay [5] and in assay [6] was “Not Active” throughout.
On to `CN(C)CCCN1c2ccccc2Sc2ccc(Cl)cc21` [CHLORPROMAZINE], for which the concentration for half-maximal inhibition (IC50) (as a rule, the concentration at which inhibition is half-maximal) in assay [1] (read-out: IC50) was 4680 nM; in assay [3], “Not Active”; in assay [4], “Not Active”; in assay [5], “Not Active”. The Ki (commonly a measure of affinity in units of concentration, obtained from inhibition or displacement) in assay [1] is 2680 nM.
As for `O=C(CCCN1CC=C(n2c(=O)[nH]c3ccccc32)CC1)c1ccc(F)cc1` [DROPERIDOL], the IC50 in assay [1] (read-out: IC50) is 242 nM; in assay [2] it was “Not Active”; in assay [3], “Not Active”; in assay [4] it was “Not Active”; in assay [5], “Not Active”. Besides, the Ki in assay [1] is 138 nM.
As to `CCCN1C[C@H](CSC)C[C@@H]2c3cccc4[nH]cc(c34)C[C@H]21` [PERGOLIDE], the 50% inhibitory concentration (IC50) entry in assay [2], in assay [3], in assay [4], in assay [5] and in assay [6] was “Not Active” in each case.
